The target of this assay is T1, human c-Met (Homo sapiens, UniProt P08581).
T1 construct: Recombinant GST-tagged cytosolic domains of human c-Met; 6xHis; made in house; host or cells: Sf9 or Sf21 insect cells (baculovirus, Pharmingen vector pGcGHLT-A, B or C)
Nature of the assay: In vitro kinase assay (homogeneous time-resolved tyrosine kinase assay, HTRF) for c-Met. The assay is classed as biochemical. The conditions noted are these: recombinant GST-tagged cytosolic domain of c-Met, 0.2 nM c-Met, 50 μM MgATP, 80 min at room temperature. The source says: Recombinant GST-tagged cytosolic domains of human c-Met and other receptor tyrosine kinases including mouse c-Met, human Ron, KDR, IGFR, EGFR, FGFR, Mer, TrkA and Tie2 are used to determine whether the compounds of the instant invention modulate the enzymatic activities of these kinases.
Soluble recombinant GST-tagged cytosolic domains of c-Met and other receptor tyrosine kinases are expressed in a baculovirus system (Pharmingen) according to a protocol recommended by the manufacturer. The c-DNA encoding each cytosolic domain is subcloned into a baculovirus expression vector (pGcGHLT-A, B or C, Pharmingen) containing an in frame 6× histidine tag and a GST tag. […] The protein concentrations of the fusion proteins are determined using Coomassie Plus Protein Assay (Pierce) with BSA as standard.
The kinase activities of c-Met and other kinases are measured using a modified version of the homogeneous time-resolved tyrosine kinase assay described by Park et al. (1999, Anal. Biochem. 269:94-104).
The procedure for determining the potency of a compound to inhibit c-Met kinase comprises the following steps: • 1. […] Read HTRF signals on a Victor reader (PerkinElmer) in HTRF mode after 60 min. • 6. IC50 is determined by fitting the observed relationship between compound concentration and HTRF signal with a 4-parameter logistic equation. […]
(In general: Time-resolved FRET reads energy transfer from a long-lived donor to a nearby acceptor.)

Molecules are shown by their SMILES. pIC50: −log10 of the molar value.

T1 sequence (P08581 956-1390 limits assumed): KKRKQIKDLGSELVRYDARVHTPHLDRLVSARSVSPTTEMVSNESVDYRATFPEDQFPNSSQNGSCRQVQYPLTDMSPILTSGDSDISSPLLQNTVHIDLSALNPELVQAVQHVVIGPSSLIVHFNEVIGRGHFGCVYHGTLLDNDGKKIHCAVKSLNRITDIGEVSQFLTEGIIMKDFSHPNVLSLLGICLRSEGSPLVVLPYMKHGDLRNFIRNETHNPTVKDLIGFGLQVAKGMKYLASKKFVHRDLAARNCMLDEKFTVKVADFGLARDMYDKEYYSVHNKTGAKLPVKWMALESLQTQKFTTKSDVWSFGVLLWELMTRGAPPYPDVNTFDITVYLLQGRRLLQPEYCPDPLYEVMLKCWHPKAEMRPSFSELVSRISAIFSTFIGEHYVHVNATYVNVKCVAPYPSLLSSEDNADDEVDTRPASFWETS

By pIC50 is commonly meant −log10 of the IC50, conventionally taken in molar units. Consider `O=c1c2cc(-c3ccccc3)cnc2ccc2cccc(Br)c12` [Compound 3, 6-bromo-3-phenyl-5H-benzo[4,5]cyclohepta[1,2-b]pyridin-5-one], for which the pIC50 was not below 4.30.

Source of the values: patent publication US7550478B2, “Tyrosine kinase inhibitors” (Merck & Co. Inc., priority 2006, dated 2009).
